Measurements taken from ChEMBL document CHEMBL1201862, “PubChem BioAssay data set” (2004).
Calls of active or inactive are those of the source.

Key:
[1] = target: T1, Heat shock factor protein 1 (Mus musculus, UniProt P38532); assay: HSF1 potentiators in luciferase reporter cells, confirmation, cell-based, NIH3T3, luminescence, dose retest (AID 435004); type: functional;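 note: stress induced by proteasome inhibitor MG132 added 30 min after compound; luciferase reporter driven by HSF1 response element in NIH3T3 cells; actives raise luminescence as potentiators of the MG132 stress response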
T1 sequence (P38532 whole entry): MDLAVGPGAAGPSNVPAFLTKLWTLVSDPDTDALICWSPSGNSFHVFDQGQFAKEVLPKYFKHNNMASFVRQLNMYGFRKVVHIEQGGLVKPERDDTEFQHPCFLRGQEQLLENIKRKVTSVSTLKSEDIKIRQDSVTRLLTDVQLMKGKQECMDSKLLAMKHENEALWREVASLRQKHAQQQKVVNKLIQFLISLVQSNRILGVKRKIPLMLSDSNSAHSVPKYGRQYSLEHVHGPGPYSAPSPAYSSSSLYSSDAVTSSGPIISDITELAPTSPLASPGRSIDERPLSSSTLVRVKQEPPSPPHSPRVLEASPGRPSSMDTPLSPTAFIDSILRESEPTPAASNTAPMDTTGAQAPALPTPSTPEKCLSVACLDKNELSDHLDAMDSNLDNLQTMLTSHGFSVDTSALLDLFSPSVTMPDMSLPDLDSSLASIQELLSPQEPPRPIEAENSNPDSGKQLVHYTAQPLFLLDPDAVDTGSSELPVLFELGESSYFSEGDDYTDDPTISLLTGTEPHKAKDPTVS

[2] = target: T2, Corticotropin-releasing factor receptor 2/Corticotropin-releasing factor-binding protein (Homo sapiens, UniProt P24387+Q13324); assay: Dose Response confirmation of uHTS hits for small molecule antagonists of the CRF-binding protein and CRF-R2 receptor complex.; type: functional; details: read-out: IC50_Mean
T2 sequence (Q13324 whole entry): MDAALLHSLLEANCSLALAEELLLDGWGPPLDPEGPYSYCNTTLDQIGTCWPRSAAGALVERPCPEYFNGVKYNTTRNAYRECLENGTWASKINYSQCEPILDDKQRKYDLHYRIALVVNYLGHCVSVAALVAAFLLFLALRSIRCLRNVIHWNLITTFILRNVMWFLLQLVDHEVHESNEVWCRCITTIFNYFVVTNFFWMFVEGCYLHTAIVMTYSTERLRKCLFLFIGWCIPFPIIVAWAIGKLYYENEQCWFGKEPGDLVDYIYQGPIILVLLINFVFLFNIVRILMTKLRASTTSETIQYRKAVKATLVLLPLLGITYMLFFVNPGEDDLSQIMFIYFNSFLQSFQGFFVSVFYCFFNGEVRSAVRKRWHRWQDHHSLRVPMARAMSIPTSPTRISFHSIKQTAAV
T2 sequence (P24387 whole entry): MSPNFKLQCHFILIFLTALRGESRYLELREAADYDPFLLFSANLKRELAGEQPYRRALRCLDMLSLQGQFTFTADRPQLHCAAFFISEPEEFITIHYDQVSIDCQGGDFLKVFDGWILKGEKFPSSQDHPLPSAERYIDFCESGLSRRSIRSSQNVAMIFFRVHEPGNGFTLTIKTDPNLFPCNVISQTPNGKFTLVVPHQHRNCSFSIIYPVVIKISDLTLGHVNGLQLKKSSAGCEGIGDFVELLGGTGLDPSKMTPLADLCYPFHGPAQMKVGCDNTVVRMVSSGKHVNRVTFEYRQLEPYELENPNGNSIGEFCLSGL

[3] = target: T2, Corticotropin-releasing factor receptor 2/Corticotropin-releasing factor-binding protein; assay: activators of CRF receptor 2 with binding protein – uHTS hits, confirmation (AID 602473); type: functional; details: read-out: EC50_Mean
P388/ADR = assay: cells; type: functional; details: Mus musculus
SN12K1 = assay: cells; type: functional; details: Homo sapiens
P388 = assay: cells; type: functional; details: Mus musculus
[4] = Luminescence Cell-Based Dose Confirmation HTS to Identify Activators of 5'UTR Stem-Loop Driven Alpha-Synuclein mRNA Translation in H4 Neuroglioblastoma Cells. [Related pubchem assays: 1829 (Project Summary), 1814 (Primary HTS)]; type: functional
[5] = Luminescence Cell-Based Dose Response HTS to Identify Activators of Luciferase Translation or Activity in H4 […] Cells. [Related pubchem assays: 1829 (Project Summary), 1814 (Primary HTS)]; type: functional
H4 = assay: Luminescence Cell-Based Dose Response HTS to Identify Activators of 5'UTR Stem-Loop Driven Prion Protein mRNA Translation in H4 Neuroglioblastoma Cells. [Related pubchem assays: 1829 (Project Summary), 1814 (Primary HTS)]; type: functional; details: Homo sapiens
Cytochrome P450 3A4 = Cytochrome P450 3A4 (Homo sapiens, UniProt P08684);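 note: CYP3A4 tested as one member of a cytochrome P450 panel screen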
[6] = Luminescence Cell-Based Dose Retest to Confirm Inhibitors of Cancer Stem Cells. [Related pubchem assays (depositor defined):AID2717, AID2721]; type: functional; details: Homo sapiens
Cytochrome P450 1A2 = target: T3, Cytochrome P450 1A2 (Homo sapiens, UniProt P05177);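 note: PubChem cytochrome P450 panel assay, CYP1A2 panel member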
T3 sequence (P05177 whole entry): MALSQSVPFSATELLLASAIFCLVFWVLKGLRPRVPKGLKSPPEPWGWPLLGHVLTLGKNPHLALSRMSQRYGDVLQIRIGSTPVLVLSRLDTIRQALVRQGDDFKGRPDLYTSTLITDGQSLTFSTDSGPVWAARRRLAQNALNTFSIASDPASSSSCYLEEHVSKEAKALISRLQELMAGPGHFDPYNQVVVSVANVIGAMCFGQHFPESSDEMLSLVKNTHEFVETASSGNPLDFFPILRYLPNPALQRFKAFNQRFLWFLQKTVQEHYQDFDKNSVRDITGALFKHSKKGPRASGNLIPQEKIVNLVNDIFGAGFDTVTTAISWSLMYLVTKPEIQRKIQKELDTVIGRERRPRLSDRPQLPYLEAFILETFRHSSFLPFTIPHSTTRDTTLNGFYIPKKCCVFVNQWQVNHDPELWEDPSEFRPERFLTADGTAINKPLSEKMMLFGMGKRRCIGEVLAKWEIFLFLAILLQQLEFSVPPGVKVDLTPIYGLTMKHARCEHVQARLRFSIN

Cytochrome P450 2C9 = Cytochrome P450 2C9 (Homo sapiens, UniProt P11712)
Cytochrome P450 2C9, sequence (P11712 whole entry): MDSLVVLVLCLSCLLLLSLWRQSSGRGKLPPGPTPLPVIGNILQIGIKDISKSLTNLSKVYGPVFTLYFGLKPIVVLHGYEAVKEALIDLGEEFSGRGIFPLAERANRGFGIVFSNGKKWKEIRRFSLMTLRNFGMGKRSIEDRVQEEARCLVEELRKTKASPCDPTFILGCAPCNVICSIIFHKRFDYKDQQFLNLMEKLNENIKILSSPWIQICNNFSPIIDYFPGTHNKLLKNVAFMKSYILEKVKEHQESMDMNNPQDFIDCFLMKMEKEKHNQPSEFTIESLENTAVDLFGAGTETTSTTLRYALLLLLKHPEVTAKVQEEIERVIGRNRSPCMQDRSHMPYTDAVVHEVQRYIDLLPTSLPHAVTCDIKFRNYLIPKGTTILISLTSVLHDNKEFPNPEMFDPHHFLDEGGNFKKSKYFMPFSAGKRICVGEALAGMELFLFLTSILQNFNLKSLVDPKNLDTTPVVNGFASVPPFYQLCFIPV

Cytochrome P450 3A4, sequence (P08684 whole entry): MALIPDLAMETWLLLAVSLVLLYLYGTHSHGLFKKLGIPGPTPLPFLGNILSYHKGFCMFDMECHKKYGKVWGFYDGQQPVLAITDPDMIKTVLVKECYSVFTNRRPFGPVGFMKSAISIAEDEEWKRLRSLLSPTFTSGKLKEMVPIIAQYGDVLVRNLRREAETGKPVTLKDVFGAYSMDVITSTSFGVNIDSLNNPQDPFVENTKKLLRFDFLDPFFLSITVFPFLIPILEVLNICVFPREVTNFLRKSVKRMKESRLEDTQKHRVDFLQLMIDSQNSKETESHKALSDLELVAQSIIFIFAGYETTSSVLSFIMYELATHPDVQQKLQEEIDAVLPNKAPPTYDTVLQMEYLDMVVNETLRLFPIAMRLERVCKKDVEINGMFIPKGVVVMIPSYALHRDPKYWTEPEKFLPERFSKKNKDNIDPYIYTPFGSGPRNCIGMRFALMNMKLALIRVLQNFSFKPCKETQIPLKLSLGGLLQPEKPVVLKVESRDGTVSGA

## Clc1ccc(-n2cc(COCc3ccccc3)nn2)cc1
[1]
  EC50: > 260 µM (inconclusive)
[2]
  IC50: > 47.1 µM (inactive)
[3]
  EC50: > 53 µM (inactive)

## CC1CC(C)(O)C2C3(C)CCCC2(COC3=O)C12CCC1(CCOC1=O)O2 (configuration not stated)
P388/ADR
  GI50: 141 µM (inactive)
SN12K1
  GI50: > 250 µM (inactive)
P388
  GI50: > 250 µM (inactive)

## CCN1CCN(/C=N/c2nc(C)cs2)CC1
[4]
  EC50: 14.2 µM (active)
[5]
  EC50: 51.9 µM (active)
H4
  EC50: > 120 µM (not active)

## C/C(=N/NC(=O)c1ccoc1C)C12CC3CC(CC(C3)C1)C2
[4]
  EC50: > 120 µM (not active)
[5]
  EC50: > 120 µM (not active)
H4
  EC50: 42.6 µM (active)

## COCCNC(=O)COc1ccc(OCCNC[C@@H](O)COc2ccccc2)cc1
Cytochrome P450 3A4
  AC50: 31.6 µM (inconclusive)

## Cc1ccccc1CSc1ccc(-c2ccc3c(c2)OCO3)nn1
[6]
  AC50: 6.68 µM (active)

## O=C(CCl)Nc1cccc(S(=O)(=O)NC2=NCCC2)c1
[4]
  EC50: 45.1 µM (active)
[5]
  EC50: 62.6 µM (active)
H4
  EC50: > 120 µM (not active)

## CC(=O)Nc1ccc(S(=O)(=O)N/N=C/c2ccc(C)s2)cc1
[4]
  EC50: 5.39 µM (active)
[5]
  EC50: 33.8 µM (active)
H4
  EC50: 53.5 µM (active)

## CC(C)[C@H](NC(=O)OC(C)(C)C)C(=O)N/N=C/c1ccc2nccnc2c1
[2]
  IC50: > 47.1 µM (inactive)
[3]
  EC50: > 53 µM (inactive)

## CC1(C)N=C(N)N=C(N)N1c1ccc(CCc2ccccc2)cc1
P388/ADR
  GI50: 22.2 µM (inactive)
SN12K1
  GI50: 0.533 µM (active)
P388
  GI50: < 0.01 µM (active)

## C[C@]12CC[C@H](OC3OC(CO)C(O)C(O)C3O)C[C@H]1CC[C@@H]1[C@@H]2CC[C@]2(C)[C@@H](C3=CCOC3=O)CC[C@]12O (some centres not stated) [ACTODIGIN]
P388/ADR
  GI50: 6.12 µM (inactive)
SN12K1
  GI50: 11 µM (inactive)
P388
  GI50: 7.76 µM (inactive)

## Cc1cc(C)nc(Nc2n[nH]c(COc3ccccc3)n2)n1
[4]
  EC50: 4.85 µM (active)
[5]
  EC50: 21.8 µM (active)
H4
  EC50: > 120 µM (not active)

## CC(=O)Nc1ccc(OCC(O)CN2CCN(c3cc(Cl)ccc3C)CC2)cc1 (configuration not stated)
[6]
  AC50: 1.77 µM (active)

## N=C(Nc1ccc(I)cc1)NC1C2CC3CC(C2)CC1C3 (configuration not stated)
Cytochrome P450 1A2
  AC50: 39.8 µM (inconclusive)
Cytochrome P450 3A4
  AC50: 15.8 µM (inconclusive)

## COc1ccc(C(=O)OCc2csc(C)n2)c(O)c1
[4]
  EC50: 40.5 µM (active)
[5]
  EC50: > 120 µM (not active)
H4
  EC50: 79.1 µM (active)

## COc1cc2ccccc2cc1C(=O)N/N=C/c1ccc2c(c1)OCO2
[2]
  IC50: > 47.1 µM (inactive)
[3]
  EC50: > 53 µM (inactive)

## COc1ccc(CNc2nc3nc4c(c(O)n3n2)CCC4)cc1
Cytochrome P450 3A4
  AC50: 39.8 µM (inconclusive)
Cytochrome P450 2C9
  AC50: 22.4 µM (inconclusive)

## OCC1OC(n2cnc3c2NC=NC[C@H]3O)C(O)C1O (some centres not stated)
P388/ADR
  GI50: > 366 µM (inactive)
SN12K1
  GI50: 224 µM (inactive)
P388
  GI50: > 366 µM (inactive)

## CC(C)CCCC(C)[C@H]1CCC(C2C[C@@H](O)[C@@H]3CC(O)[C@@H](O)C[C@]3(CO)C2=O)[C@]1(C)CCO (some centres not stated)
P388/ADR
  GI50: 27 µM (inactive)
SN12K1
  GI50: 18.7 µM (inactive)
P388
  GI50: 17.5 µM (inactive)
